# Experimental data: US10239957B2, “Peptide containing conjugates for dual molecular delivery of oligonucleotides” (Merck Sharp & Dohme Corp., priority 2013, dated 2019)
# Where no end group is shown, it is not given here. [ ]: non-standard residue; d: D form. TGN = not defined here
# Legend:
# CTNNB1 [1] = test: In vitro DMD assay: mRNA silencing enhancement by peptide conjugates after siRNA-IV treatment; format: cell-based; conditions: primary mouse hepatocytes, siRNA-IV 125 nM baseline
# In short: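 RT-qPCR read-out, PPIB-normalized (dddCt), gave silencing enhancement versus 125 nM siRNA-IV alone and untreated cells. Beforehand, cultured primary mouse hepatocytes received siRNA-IV for 1 h, then graded peptide-conjugate doses for ~16 h, followed by washout and a further 24 h incubation.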
# CTNNB1 [2] = test: In vivo evaluation in mice: liver mRNA knockdown measurement; conditions: mice
# Experimental: Female CD-1 mice (Charles River) were injected in accordance with either a sequential dosing paradigm or a co-dosing paradigm. In the sequential dosing paradigm, the targeted siRNA (SCE) is dosed at t=0 and the targeted peptide is separately dosed up to 2 hr before the SCE (−2 hr) or up to 24 hr after the SCE (+24 hr). In the co-dosing paradigm, the SCE and peptides are co-formulated and dosed together in the same formulation as a single injection at t=0. The mice were dosed either by intravenous (i.v.) or subcutaneous (s.c.) injection of SCE and peptide. For the i.v. doses, the compounds were injected into the tail vein of the mice. For the s.c. doses, the compounds were injected in the subcutaneous space on the back of the mouse between the shoulder blades. At the indicated harvest times (measured from t=0 when the siRNA was dosed, regardless of when the peptide was dosed), the animals were sacrificed and 3 mm liver punches were collected, preserved in RNAlater (Ambion), and stored at 4° C. Separate 5 mm liver punches were collected, placed in 96-well plates, frozen on dry ice, and stored at −80° C. until use.
# The 3 mm liver punches were removed from RNAlater and homogenized in Trizol (Invitrogen) using a bead mill tissue lyser (Qiagen); disruption was performed for two 5-minute cycles at 30 Hz. RNA extraction was performed using 1-bromo-2-chloropropane (Acros Organics) and total RNA was isolated from the aqueous phase using the MagMax RNA isolation method (Ambion). […] TaqMan qPCR analysis was performed with an ABI 7900 Real-Time PCR System using TaqMan Fast Advanced Master Mix (Applied Biosystems). All TaqMan probes and primers for CTNNB1 and PPIB (housekeeping gene) were purchased from Applied Biosystems as pre-validated gene expression assays. Results are calculated by the comparative Ct method, where the difference between the CTNNB1 Ct value and the PPIB Ct value (ΔCt) is calculated and then further normalized relative to the PBS control by taking a second difference (ΔΔCt), as described previously (1).
# [3] = TGN-L-siRNA-III 0.25 mg/kg IV, peptide 10 mg/kg IV 15 min after siRNA
substance,measurement,setting,value
TGN-S-S-SEQ ID NO: 1631 (D) ([dC]G[dL][dF]G[dH][dI][dH][dH][dL][dI][dH][dH]G[dL][dH][dN][dL][dI][dD][dW][dW][dN]G; not fully specified (residue 1); also: TGN attached via disulfide; listed as Homo sapiens),In vitro dddCt (vs. baseline SCE dose),CTNNB1 [1]; Targeted peptide dose 15625 nM,−2.11
same,In vivo mRNA knockdown,CTNNB1 [2]; [3],17%
TGN-S-S-SEQ ID NO: 1632 (D) ([dC]G[dL][dF]G[dE][dI][dH][dH][dL][dI][dH][dH]G[dL][dH][dN][dL][dI][dD][dW][dW][dN]G; not fully specified (residue 1); also: TGN attached via disulfide; listed as Homo sapiens),In vitro dddCt (vs. baseline SCE dose),CTNNB1 [1]; Targeted peptide dose 125 nM,−0.29
same,In vitro dddCt (vs. baseline SCE dose),CTNNB1 [1]; Targeted peptide dose 625 nM,−0.44
same,In vitro dddCt (vs. baseline SCE dose),CTNNB1 [1]; Targeted peptide dose 3125 nM,−0.19
same,In vitro dddCt (vs. baseline SCE dose),CTNNB1 [1]; Targeted peptide dose 15625 nM,−0.47
same,In vivo mRNA knockdown,CTNNB1 [2]; [3],36%
TGN-S-S-SEQ ID NO: 1633 (D) ([dC]G[dL][dF]G[dE][dI][dH][dH][dL][dI][dH][dH]G[dL][dE][dN][dL][dI][dD][dW][dW][dN]G; not fully specified (residue 1); also: TGN attached via disulfide; listed as Homo sapiens),In vitro dddCt (vs. baseline SCE dose),CTNNB1 [1]; Targeted peptide dose 25 nM,−0.33
same,In vitro dddCt (vs. baseline SCE dose),CTNNB1 [1]; Targeted peptide dose 625 nM,−0.2
same,In vitro dddCt (vs. baseline SCE dose),CTNNB1 [1]; Targeted peptide dose 3125 nM,−0.2
same,In vivo mRNA knockdown,CTNNB1 [2]; [3],55%
TGN-S-S-SEQ ID NO: 1634 (D) ([dC]G[dL][dF]G[dE][dI][dH][dE][dL][dI][dH][dH]G[dL][dE][dN][dL][dI][dD][dW][dW][dN]G; not fully specified (residue 1); also: TGN attached via disulfide; listed as Homo sapiens),In vitro dddCt (vs. baseline SCE dose),CTNNB1 [1]; Targeted peptide dose 125 nM,−0.3
same,In vitro dddCt (vs. baseline SCE dose),CTNNB1 [1]; Targeted peptide dose 625 nM,−0.41
same,In vitro dddCt (vs. baseline SCE dose),CTNNB1 [1]; Targeted peptide dose 3125 nM,−0.3
same,In vitro dddCt (vs. baseline SCE dose),CTNNB1 [1]; Targeted peptide dose 15625 nM,−0.74
same,In vivo mRNA knockdown,CTNNB1 [2]; [3],17%
TGN-S-S-SEQ ID NO: 1651 (D) ([dC]G[dL][dF][dE][dE][dI][dA][dE][dL][dI][dE][dE]G[dL][dE][dN][dL][dI][dD][dW]G[dN]G; not fully specified (residue 1); also: TGN attached via disulfide; listed as Homo sapiens),In vitro dddCt (vs. baseline SCE dose),CTNNB1 [1]; Targeted peptide dose 125 nM,−0.84
same,In vitro dddCt (vs. baseline SCE dose),CTNNB1 [1]; Targeted peptide dose 625 nM,−1.11
same,In vitro dddCt (vs. baseline SCE dose),CTNNB1 [1]; Targeted peptide dose 3125 nM,−1.55
same,In vitro dddCt (vs. baseline SCE dose),CTNNB1 [1]; Targeted peptide dose 15625 nM,−1.48
same,In vivo mRNA knockdown,CTNNB1 [2]; [3],49%
TGN-S-S-SEQ ID NO: 1652 (D) ([dC][dE][dL][dF][dE][dE][dL][dA][dE][dL][dL][dW][dE]G[dL][dE][dN][dL][dI][dD][dW]G[dN][dS]; not fully specified (residue 1); also: TGN attached via disulfide; listed as Homo sapiens),In vitro dddCt (vs. baseline SCE dose),CTNNB1 [1]; Targeted peptide dose 125 nM,−1.27
same,In vitro dddCt (vs. baseline SCE dose),CTNNB1 [1]; Targeted peptide dose 625 nM,−1.5
same,In vitro dddCt (vs. baseline SCE dose),CTNNB1 [1]; Targeted peptide dose 3125 nM,−1.6
same,In vitro dddCt (vs. baseline SCE dose),CTNNB1 [1]; Targeted peptide dose 15625 nM,−2.03
same,In vivo mRNA knockdown,CTNNB1 [2]; [3],37%
TGN-S-S-SEQ ID NO: 1653 (D) ([dC]G[dL][dF]G[dE][dI][dA][dE][dL][dI][dW][dE]G[dL][dE][dN][dL][dI][dD][dW]G[dN]G; not fully specified (residue 1); also: TGN attached via disulfide; listed as Homo sapiens),In vitro dddCt (vs. baseline SCE dose),CTNNB1 [1]; Targeted peptide dose 25 nM,−0.76
same,In vitro dddCt (vs. baseline SCE dose),CTNNB1 [1]; Targeted peptide dose 15625 nM,−2.13
same,In vivo mRNA knockdown,CTNNB1 [2]; [3],63%
same,In vivo mRNA knockdown,"CTNNB1 [2]; TGN-L-siRNA-III 0.25 mg/kg IV, peptide 50 mg/kg IV 15 min after siRNA",69%
TGN-S-S-SEQ ID NO: 1712 (L): TGN-S-S-peptide; peptide CFLGALWKALSELLKNLIDWWNG (C(TGN)FLGALWKALSELLKNLIDWWNG; reading uncertain; also: TGN disulfide conjugate at Cys1; listed as Homo sapiens),In vitro dddCt (vs. baseline SCE dose),CTNNB1 [1]; Targeted peptide dose 8 nM,0.03
same,In vitro dddCt (vs. baseline SCE dose),CTNNB1 [1]; Targeted peptide dose 40 nM,0.07
same,In vitro dddCt (vs. baseline SCE dose),CTNNB1 [1]; Targeted peptide dose 200 nM,−0.08
same,In vitro dddCt (vs. baseline SCE dose),CTNNB1 [1]; Targeted peptide dose 1000 nM,0
same,In vitro dddCt (vs. baseline SCE dose),CTNNB1 [1]; Targeted peptide dose 5000 nM,−0.2
same,In vivo mRNA knockdown,"CTNNB1 [2]; TGN-L-siRNA-III 0.5 mg/kg IV, peptide 5 mg/kg IV 15 min after siRNA",34%
TGN-S-S-SEQ ID NO: 1713 (L) (C(TGN)GLRHGELEELSHEEGLENLIDWWNG; reading uncertain; also: TGN disulfide conjugate at Cys1; listed as Homo sapiens),In vitro dddCt (vs. baseline SCE dose),CTNNB1 [1]; Targeted peptide dose 8 nM,0.21
same,In vitro dddCt (vs. baseline SCE dose),CTNNB1 [1]; Targeted peptide dose 40 nM,0.21
same,In vitro dddCt (vs. baseline SCE dose),CTNNB1 [1]; Targeted peptide dose 200 nM,0.15
same,In vitro dddCt (vs. baseline SCE dose),CTNNB1 [1]; Targeted peptide dose 1000 nM,−0.04
same,In vitro dddCt (vs. baseline SCE dose),CTNNB1 [1]; Targeted peptide dose 5000 nM,0
same,In vivo mRNA knockdown,"CTNNB1 [2]; TGN-L-siRNA-III 0.25 mg/kg IV, peptide 2 mg/kg IV 15 min after siRNA",0%
same,In vivo mRNA knockdown,CTNNB1 [2]; [3],2%
"TGN-S-S-SEQ ID NO: 1740 (L): TGN-S-S-peptide; peptide GLFEAIEGFIENGWEGLAELAEALEALAAGGSC (GLFEAIEGFIENGWEGLAELAEALEALAAGGSC(TGN); reading uncertain; also: TGN linked to Cys via disulfide, TGN not defined; listed as Homo sapiens)",In vitro dddCt (vs. baseline SCE dose),CTNNB1 [1]; Targeted peptide dose 8 nM,0
same,In vitro dddCt (vs. baseline SCE dose),CTNNB1 [1]; Targeted peptide dose 40 nM,0.13
same,In vitro dddCt (vs. baseline SCE dose),CTNNB1 [1]; Targeted peptide dose 200 nM,−0.07
same,In vitro dddCt (vs. baseline SCE dose),CTNNB1 [1]; Targeted peptide dose 1000 nM,−0.06
same,In vitro dddCt (vs. baseline SCE dose),CTNNB1 [1]; Targeted peptide dose 5000 nM,−0.06
same,In vivo mRNA knockdown,"CTNNB1 [2]; TGN-L-siRNA-II 0.25 mg/kg IV, peptide 3 mg/kg IV 15 min after siRNA",20%
TGN-S-S-SEQ ID NO: 1746 (D): TGN-S-S-peptide; peptide CEALFGKINAIFIGKL ([dC][dE][dA][dL][dF]G[dK][dI][dN][dA][dI][dF][dI]G[dK][dL]; not fully specified (residue 1); also: disulfide to TGN peptide via Cys1; listed as Homo sapiens),In vitro dddCt (vs. baseline SCE dose),CTNNB1 [1]; Targeted peptide dose 8 nM,−0.01
same,In vitro dddCt (vs. baseline SCE dose),CTNNB1 [1]; Targeted peptide dose 40 nM,−0.09
same,In vitro dddCt (vs. baseline SCE dose),CTNNB1 [1]; Targeted peptide dose 200 nM,−0.07
same,In vitro dddCt (vs. baseline SCE dose),CTNNB1 [1]; Targeted peptide dose 1000 nM,−0.09
same,In vitro dddCt (vs. baseline SCE dose),CTNNB1 [1]; Targeted peptide dose 5000 nM,−0.04
same,In vivo mRNA knockdown,"CTNNB1 [2]; TGN-L-siRNA-III 0.5 mg/kg IV, peptide 2 mg/kg IV 15 min after siRNA",31%
same,In vivo mRNA knockdown,"CTNNB1 [2]; TGN-L-siRNA-III 0.5 mg/kg IV, peptide 10 mg/kg IV 15 min after siRNA",25%
"siRNA-IV: CTNNB1 siRNA; passenger SEQ ID NO 1807 (clickA, 5Chol), guide SEQ ID NO 1806 (sense CUGUUGGAUUGAUUCGAAAUU; guide TUUCGAAUCAAUCCAACAGUU; click A, 5' cholesterol; vinylphosphonate MOE T; (1)..(1) aminohexyl phosphate inverted abasic cap; (1)..(2) 2′-O-methyl; (3)..(3) 2′-deoxy-2′-fluoro; (4)..(5) 2′-O-methyl; (6)..(8) 2′-deoxy-2′-fluoro; (9)..(10) 2′-O-methyl; (11)..(12) 2′-deoxy-2′-fluoro; (13)..(15) 2′-O-methyl; (16)..(16) 2′-deoxy-2′-fluoro; (17)..(17) 2′ propagyl; (18)..(19) 2′-deoxy-2′-fluoro; (20)..(21) 2′-O-methyl; (20)..(21) phosphorothioate internucleotide linkage; (21)..; (1)..(1) terminal vinyl phosphate; (1)..(1) 2′-methoxyethoxy; (2)..(21) ribonucleotide unmodified or modified as described for this sequence; …)",In vivo mRNA knockdown,"CTNNB1 [2]; targeted siRNA alone 0.5 mg/kg IV, peptide dose 0",25%
same,In vivo mRNA knockdown,"CTNNB1 [2]; targeted siRNA alone 2 mg/kg IV, peptide dose 0",25%
same,In vivo mRNA knockdown,"CTNNB1 [2]; targeted siRNA alone 5 mg/kg IV, peptide dose 0",35%
